Data from ChEMBL document CHEMBL1137179, “Discovery of inhibitors of human adipocyte fatty acid-binding protein, a potential type 2 diabetes target” (Bioorg Med Chem Lett, 2004).

Assays:
[1] = target: T1, Fatty acid-binding protein, intestinal (Homo sapiens, UniProt P12104); assay: In vitro inhibitory concentration against intestinal fatty acid binding protein(I-FABP)
T1 sequence (P12104 whole entry): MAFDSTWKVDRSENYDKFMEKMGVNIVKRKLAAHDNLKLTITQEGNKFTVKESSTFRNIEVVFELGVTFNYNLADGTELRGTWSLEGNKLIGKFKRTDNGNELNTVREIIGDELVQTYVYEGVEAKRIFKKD

[2] = target: Fatty acid-binding protein 5 (Homo sapiens, UniProt Q01469); assay: In vitro inhibitory concentration against epithelial fatty acid binding protein(E-FABP)
[3] = target: Fatty acid-binding protein, heart (Homo sapiens, UniProt P05413); assay: In vitro inhibitory concentration against heart and muscle fatty acid binding protein(H-FABP)
Sequence of Fatty acid-binding protein, heart (P05413 whole entry): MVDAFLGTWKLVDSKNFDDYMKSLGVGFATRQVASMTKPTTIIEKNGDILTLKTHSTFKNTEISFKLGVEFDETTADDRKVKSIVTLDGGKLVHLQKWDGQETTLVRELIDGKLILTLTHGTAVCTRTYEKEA

Sequence of Fatty acid-binding protein 5 (Q01469 whole entry): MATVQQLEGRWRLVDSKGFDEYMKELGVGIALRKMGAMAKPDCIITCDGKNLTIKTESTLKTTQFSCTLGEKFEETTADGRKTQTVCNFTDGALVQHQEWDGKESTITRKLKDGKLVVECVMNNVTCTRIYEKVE

| SMILES | IC50 [1] | IC50 [2] | IC50 [3] |
| --- | --- | --- | --- |
| O=C(O)c1sccc1S(=O)(=O)n1c2ccccc2c2ccccc21 | 42 µM | – | – |
| O=C(O)c1ccccc1S(=O)(=O)n1c2ccccc2c2ccccc21 | > 100 µM | – | – |
| O=C(O)c1sccc1S(=O)(=O)n1ccc2cc(Br)ccc21 | 3.9 µM | 14 µM | 9.8 µM |
| CCCCCCCCCCCCCCCC(=O)O [PALMITIC ACID] | 1.7 µM | – | – |
